# Measurements from EP4324461A1, “(E)-N-CINAMOYLAMINOALKANOLES WITH MELANOGENESIS INHIBITORY ACTIVITY” (UNIWERSYTET JAGIELLONSKI, priority 2022, dated 2024).
# Columns and labels:
# [1] = system: Balb/c 3T3 murine fibroblast cell line; assay: Phototoxicity in Balb/c 3T3 fibroblasts (neutral red uptake); conditions: for phototoxic potential: Balb/c 3T3, neutral red uptake; for PIF: photoirritation factor: ratio of IC50 of unirradiated to irradiated cells; for cytotoxicity towards the mouse fibroblasts: with and without exposure to UVA
# Method: Balb/c 3T3 cells, which are an immortalized murine fibroblast cell line, were purchased at ATTC and cultured in the medium recommended by the manufacturer (DMEM GlutaMAX, newborn calf serum (BCS), antibiotics). After multiplication, cells were placed in 96-well plates, which were incubated for 24 hours, after which all wells of the plates were washed with 150 µL of balanced salt solution (HBSS). Then, after drying the plates, 100 µL of a solution of the tested compounds in HBSS with 2% FBS was added to each well and incubated for an hour. After this time, some of the plates were irradiated using the Suntest CPS+ sunlight simulator from Atlas with appropriate filters cutting off radiation with a wavelength <320 nm (UVA radiation intensity 5 J/cm^2). The second part of the plates was placed in radiation-free conditions for the same period of time. After the exposure time, the liquid was removed from all plates and the wells were washed twice with 150 µL of HBSS, then supplemented with fresh culture medium and incubated for 24 hours in an incubator (37 °C, 5% CO2). Viability was assessed in the neutral red uptake test, which is based on the ability of the dye to penetrate only into living cells. Dye uptake was confirmed by absorbance measurement at 540 nm. […] The appropriate coefficients were also calculated: mean phototoxic effect (MPE) and photoirritation factor (PIF). PIF is the ratio of the IC50 values of unirradiated to irradiated cells, while MPE is based on the comparison of concentration-response curves. […]
# [2] = molecular target: T1, tyrosinase released from B16-F10 cells (Mus musculus, UniProt P11344); assay: Inhibition of tyrosinase activity released from B16-F10 cells; assay type: cell-based, murine; conditions: α-MSH induced cells, lysate, L-DOPA 0.5 mM
# T1 construct: endogenous in cells; host or cells: B16-F10 murine melanoma cells, α-MSH stimulated, Triton X-100 lysate
# T1 sequence (P11344 19-533): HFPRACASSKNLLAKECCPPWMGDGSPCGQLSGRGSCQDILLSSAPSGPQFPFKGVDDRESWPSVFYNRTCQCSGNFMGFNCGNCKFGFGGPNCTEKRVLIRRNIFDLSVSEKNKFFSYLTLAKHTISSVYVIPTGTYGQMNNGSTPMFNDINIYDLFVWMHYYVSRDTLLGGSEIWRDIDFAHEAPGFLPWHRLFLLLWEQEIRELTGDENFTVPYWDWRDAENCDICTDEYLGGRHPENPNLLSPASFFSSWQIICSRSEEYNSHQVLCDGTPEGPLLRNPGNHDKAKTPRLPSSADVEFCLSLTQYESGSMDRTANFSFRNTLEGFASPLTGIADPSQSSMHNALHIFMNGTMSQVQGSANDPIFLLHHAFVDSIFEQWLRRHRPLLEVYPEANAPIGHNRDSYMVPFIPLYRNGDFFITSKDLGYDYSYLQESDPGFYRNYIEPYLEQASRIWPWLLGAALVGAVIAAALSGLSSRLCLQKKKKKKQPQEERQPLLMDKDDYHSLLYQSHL
# Method: 50,000 cells were placed in each well of a 24-well plate (in F10-Ham medium, 1% FBS). After 24 h of culture, the tested compounds were added in fresh medium (DMEM, 1% FBS), with an additional 5 µM of α-melanocorticotropic hormone (α-MSH) in the medium to induce melanogenesis. Three wells on the plate constituted a control sample without the melanogenesis inducer (α-MSH) and without the tested compounds. After 24 hours of incubation under these conditions, the medium was removed and the cells were washed twice with PBS. 100 µL of lysis buffer composed of 90 µL of 50 mM potassium phosphate buffer, 5 µL of 0.1 mM phenylmethylsulfonyl fluoride and 5 µL of 1% Triton X-100 were added to the wells. The plates were placed at -80 °C for 30 minutes. Cell lysates were then centrifuged for 30 min (4 °C, 12,000 rpm), and then 80 µL of the supernatant was transferred to 96-well plates. […] After a 30-minute incubation, the absorbance was measured at 475 nm using a microplate reader. The percentage of inhibition of tyrosinase activity was calculated using the formula: [(AC -AT)/AC] × 100, where AC - is the absorbance of the negative control (from wells in which cells were cultured without the tested compounds), AT - is the absorbance of the sample from wells in which cells were cultured in the presence of the test compound.
# [3] = system: human reconstructed epidermis Episkin™; assay: Skin permeation in reconstructed human epidermis (Episkin); assay type: in vitro ADME
# Method: The tested substance A-111 in a macrogol formulation (2% A-111 in the PEG400+PEG800 base) was applied onto the epidermis in an amount of approximately 10 mg/cm^2 ("finite dose application") using a sterile inoculation loop. The amount applied was weighed accurately. As a control, a macrogol formulation without the test substance was applied onto the epidermis. The finished experimental plate was incubated at 32 °C. At specific time intervals, aliquots of the receptor fluid (0.5 mL) were collected for the analysis and replaced with 0.5 mL of fresh receptor fluid. After 24 h of culture, all of the receptor fluid was collected. The examined tissue was washed with cotton buds soaked in methanol. The donor and receptor compartments were washed with methanol, and the epidermis was separated from the inserts and transferred to methanol. Samples were stored at -20 °C until analysis. The content (concentration) of the tested substance A-111 in the receptor fluid and in individual compartments: on the surface of the epidermis, in the epidermis, in the receptor fluid was determined using measurements in a microplate reader at 281 nm on 96-well plates transmitting ultraviolet radiation.
# In order to confirm proper bioavailability, studies of the permeation of compound A-111 from a solution in PEG400 were performed in a model of reconstructed human epidermis. […] The tested substance A-111 was applied onto the epidermis in the form of a 2% PEG400 solution in an amount of 15 µL. The finished experimental plate was incubated at 32 °C. At specific time intervals, aliquots of the receptor fluid (0.5 mL) were collected for the analysis and replaced with fresh fluid. After 24 h of culture, all of the receptor fluid was collected. The examined tissue was washed with cotton buds soaked in methanol. The donor and receptor compartments were washed with methanol, and the epidermis was separated from the inserts and transferred to methanol. The content (concentration) of the tested substance A-111 in the acceptor fluid and in individual compartments: on the surface of the epidermis, in the epidermis, in the receptor fluid was determined using measurements in a microplate reader at 281nm on 96-well plates transmitting ultraviolet radiation.
# Permeation studies of the A-111 compound from a cosmetic formulation were performed in a model of reconstructed human epidermis. […] 25 µL of the formulation containing the tested compound A-111 was applied to the epidermis. […] The content (concentration) of the tested substance A-111 in the receptor fluid and in individual compartments: on the surface of the epidermis, in the epidermis, in the receptor fluid was determined using measurements in a microplate reader at 281 nm on 96-well plates transmitting ultraviolet radiation.
# [4] = 2% A-111 in the PEG400+PEG800 base, approx. 10 mg/cm^2, 24 h
SMILES,phototoxic potential [1],PIF [1],cytotoxicity towards the mouse fibroblasts [1],inhibition of tyrosinase activity released from B16-F10 cells [2],"accumulation in the epidermis [3, 4]","permeation through the epidermis [3, 4]","permeation through the epidermis ([3]; 2% PEG400 solution, 15 µL, 24 h)","permeation through the epidermis ([3]; 25 µL of the cosmetic formulation (0.74% A-111), 24 h)"
"O=C(/C=C/c1ccccc1)NCCCCCO [Compound A-133, (2E)-N-(5-hydroxypentyl)-3-phenylprop-2-enamide]",do not have phototoxic potential,No phototoxicity,devoid of cytotoxicity,,,,,
"O=C(/C=C/c1ccc(Cl)cc1)NCCCCCO [Compound A-111, (2E)-3-(4-chlorophenyl)-N-(5-hydroxypentyl)prop-2-enamide]",do not have phototoxic potential,No phototoxicity,devoid of cytotoxicity,inhibit the activity of tyrosinase released from B16-F10 cells,no accumulation of compound A-111 in the epidermis,crosses the epidermal barrier and has the potential to penetrate the dermis,crosses the epidermal barrier and has the potential to penetrate the dermis,crosses the epidermal barrier and has the potential to penetrate the dermis
